# Results from patent US8871681B2, “Herbicidal compositions comprising 4-amino-3-chloro-5-fluoro-6-(4-chloro-2-fluoro-3-methoxyphenyl) pyridine-2-carboxylic acid or a derivative thereof and certain sulfonylureas” (Dow AgroSciences LLC, priority 2012, dated 2014).
# How the values were obtained:
# [1] = system: LEFCH (Leptochloa chinensis, Chinese sprangletop); assay: Postemergence foliar-applied weed control, direct seeded rice, greenhouse (Example I); format: in vivo, Leptochloa chinensis (L.) Nees; settings: Dinebra chinensis, post-emergence, 480 h, 20 DAA, read-out: Visual Weed Control (%) Obs
# Text: (§1) Seeds or nutlets of the desired test plant species were planted in a soil matrix prepared by mixing a loam or sandy loam soil (e.g., 28.6 percent silt, 18.8 percent clay, and 52.6 percent sand, with a pH of about 5.8 and an organic matter content of about 1.8 percent) and calcareous grit in an 80 to 20 ratio. The soil matrix was contained in plastic pots with a volume of 1 quart and a surface area of 83.6 square centimeters (cm^2). When required to ensure good germination and healthy plants, a fungicide treatment and/or other chemical or physical treatment was applied. The plants were grown for 8-22 days in a greenhouse with an approximate 14 h photoperiod which was maintained at about 29° C. during the day and 26° C. during the night. Nutrients (Peters Excel® 15-5-15 5-Ca 2-Mg and iron chelate) were applied in the irrigation solution as needed and water was added on a regular basis. Supplemental lighting was provided with overhead metal halide 1000-Watt lamps as necessary. The plants were employed for testing when they reached the first through fourth true leaf stage.
# (§2) Treatments consisted of the acid or esters of 4-amino-3-chloro-5-fluoro-6-(4-chloro-2-fluoro-3-methoxy-phenyl)pyridine-2-carboxylic acid (Compound A), each formulated as an SC, and various herbicidal components alone and in combination. Forms of compound A were applied on an acid equivalent basis.
# (§3) Other herbicidal components were applied on an active ingredient basis and included acetolactate synthase (ALS)-inhibiting herbicides (sulfonylurea chemical class) azimsulfuron formulated as Gulliver®, bensulfuron-methyl formulated as Londax® 60DF, cyclosulfamuron (technical material), ethoxysulfuron formulated as Sunrice® 15 WDG, flazasulfuron formulated as Katana®, flucetosulfuron formulated as Sukedachi® 1KG G, foramsulfuron formulated as Option®, imazosulfuron formulated as Brazzos® WG, iodosulfuron-methyl-sodium formulated as Hussar®, metsulfuron-methyl formulated as Lorate®, nicosulfuron formulated as Accent®, orthosulfamuron formulated as Strada® WG, primisulfuron-methyl (technical material), propyrisulfuron formulated as Zeta One®, rimsulfuron formulated as Matrix® WG, sulfometuron-methyl formulated as Oust®, and trifloxysulfuron-sodium formulated as Monument® 75WG.
# (§4) Treatment requirements were calculated based upon the rates being tested, the concentration of active ingredient or acid equivalent in the formulation, and a 12 mL application volume at a rate of 187 L/ha.
# (§5) For treatments comprised of formulated compounds, measured amounts of compounds were placed individually in 25 mL glass vials and diluted in a volume of 1.25% (v/v) Agri-Dex® crop oil concentrated to obtain 12× stock solutions. […] Application solutions were prepared by adding an appropriate amount of each stock solution (e.g., 1 mL) and diluted to the appropriate final concentrations with the addition of 10 mL of an aqueous mixture of 1.25% (v/v) crop oil concentrate so that the final spray solutions contained 1.25+/−0.05% (v/v) Agrcrop oil concentrate.
# (§6) For treatments comprised of formulated and technical compounds, weighed amounts of the technical materials were placed individually in 25 mL glass vials and dissolved in a volume of 97:3 v/v acetone/DMSO to obtain 12× stock solutions, and measured amounts of the formulated compounds were placed individually in 25 mL glass vials and diluted in a volume of 1.25% (v/v) crop oil concentrate to obtain 12× stock solutions. […] Application solutions were prepared by adding an appropriate amount of each stock solution (e.g., 1 mL) and diluted to the appropriate final concentrations with the addition of an appropriate amount of an aqueous mixture of 1.5% (v/v) crop oil concentrate so that the final spray solutions contained 1.25% (v/v) crop oil concentrate. […]
# [2] = system: ECHOR (Echinochloa oryzoides, early watergrass); assay: In-water applied weed control, transplanted paddy rice, greenhouse (Example II); format: in vivo, Echinochloa oryzoides (Ard.) Fritsch
# Protocol: (§7) Weed seeds or nutlets of the desired test plant species were planted in puddled soil (mud) prepared by mixing a shredded, non-sterilized mineral soil (50.5 percent silt, 25.5 percent clay, and 24 percent sand, with a pH of about 7.6 and an organic matter content of about 2.9 percent) and water at a 1:1 volumetric ratio. The prepared mud was dispensed in 365 mL aliquots into 16-ounce (oz.) non-perforated plastic pots with a surface area of 86.59 square centimeters (cm^2) leaving a headspace of 3 centimeters (cm) in each pot. Rice seeds were planted in Sun Gro MetroMix® 306 planting mixture, which typically has a pH of 6.0 to 6.8 and an organic matter content of about 30 percent, in plastic plug trays. Seedlings at the second or third leaf stage of growth were transplanted into 860 mL of mud contained in 32-oz. non-perforated plastic pots with a surface area of 86.59 cm^2 4 days prior to herbicide application. The paddy was created by filling the headspace of the pots with 2.5 to 3 cm of water. When required to ensure good germination and healthy plants, a fungicide treatment and/or other chemical or physical treatment was applied. The plants were grown for 4-22 days in a greenhouse with an approximate 14 h photoperiod which was maintained at about 29′C during the day and 26° C. during the night. Nutrients were added as Osmocote® (19:6:12, N:P:K+minor nutrients) at 2 g per 16-oz. pot and 4 g per 32-oz. pot. Water was added on a regular basis to maintain the paddy flood, and supplemental lighting was provided with overhead metal halide 1000-Watt lamps as necessary. The plants were employed for testing when they reached the first through fourth true leaf stage.
# (§8) Treatments consisted of the acid or esters of 4-amino-3-chloro-5-fluoro-6-(4-chloro-2-fluoro-3-methoxy-phenyl)pyridine-2-carboxylic acid (compound A) each formulated as an SC and various herbicidal components alone and in combination. Forms of compound A were applied on an acid equivalent basis.
# (§9) Other herbicidal components were applied on an active ingredient basis and included acetolactate synthase (ALS)-inhibiting herbicides (sulfonylurea chemical class), azimsulfuron formulated as Gulliver®, bensulfuron-methyl formulated as Londax® 60DF, cyclosulfamuron (technical grade materail), ethoxysulfuron formulated as Sunrice® 15 WDG, flucetosulfuron formulated as Sukedachi® 1KG G, imazosulfuron formulated as Brazzos®, metsulfuron-methyl formulated as Lorate®, nicosulfuron formulated as Accent®, orthosulfamuron formulated as Strada® WG, propyrisulfuron formulated as Zeta One®, and rimsulfuron formulated as Matrix® WG.
# (§10) Treatment requirements for each compound or herbicidal component were calculated based upon the rates being tested, the concentration of active ingredient or acid equivalent in the formulation, an application volume of 2 mL per component per pot, and an application area of 86.59 cm^2 per pot.
# (§11) For formulated compounds, a measured amount was placed in an individual 100 or 200 mL glass vial and was dissolved in a volume of 1.25% (v/v) Agri-Dex® crop oil concentrate to obtain application solutions.
# (§12) For technical grade compounds, a weighed amount was placed in an individual 100 to 200 mL glass vial and was dissolved in a volume of acetone to obtain concentrated stock solutions. […] The concentrated stock solutions obtained were diluted with an equivalent volume of an aqueous mixture containing 2.5% (v/v) crop oil concentrate so that the final application solutions contained 1.25% (v/v) crop oil concentrate.
# (§13) Applications were made by injecting with a pipetter appropriate amounts of the application solutions, individually and sequentially, into the aqueous layer of the paddy. Control plants were treated in the same manner with the solvent blank. Applications were made so that all treated plant material received the same concentrations of acetone and crop oil concentrate. […]
# [3] = system: SCPMA (Bolboschoenus maritimus or Schoenoplectus maritimus, sea clubrush); assay: as above; format: in vivo, Bolboschoenus maritimus (L.) Palla
# Protocol: as §7, §8, §9, §10, §11, §12, §13
# [4] = system: BRAPP (Brachiaria platyphylla, broadleaf signalgrass); assay: Postemergence foliar-applied weed control, direct seeded rice, greenhouse (Example I); format: in vivo, Brachiaria platyphylla (Griseb.) Nash; settings: Urochloa platyphylla, post-emergence
# Text: as §1, §2, §3, §4, §5, §6
# [5] = system: CYPES (Cyperus esculentus, yellow nutsedge); assay: as above; format: in vivo, Cyperus esculentus L.; settings: 20 DAA
# Text: as §1, §2, §3, §4, §5, §6
# [6] = system: CYPIR (Cyperus iria, rice flatsedge); assay: as above; format: in vivo, Cyperus iria L.; settings: 20 DAA
# Text: as §1, §2, §3, §4, §5, §6
# [7] = system: CYPRO (Cyperus rotundus, purple nutsedge); assay: In-water applied weed control, transplanted paddy rice, greenhouse (Example II); format: in vivo, Cyperus rotundus L.
# Protocol: as §7, §8, §9, §10, §11, §12, §13
# [8] = system: LEFCH (Leptochloa chinensis, Chinese sprangletop); assay: as above; format: in vivo, Leptochloa chinensis (L.) Nees; settings: Table 43, 17.5 gai/ha alone
# Protocol: as §7, §8, §9, §10, §11, §12, §13
# [9] = system: DIGSA (Digitaria sanguinalis, large crabgrass); assay: Postemergence foliar-applied weed control, direct seeded rice, greenhouse (Example I); format: in vivo, Digitaria sanguinalis (L.) Scop.; settings: 20 DAA
# Text: as §1, §2, §3, §4, §5, §6
# [10] = system: ECHCG (Echinochloa crusgalli, barnyardgrass); assay: as above; format: in vivo, Echinochloa crusgalli (L.) Beauv.; settings: 27 DAA
# Text: as §1, §2, §3, §4, §5, §6
compound,measurement,setting,value
"COc1cc(OC)nc(NC(=O)NS(=O)(=O)Nc2ccccc2C(=O)N(C)C)n1 [Orthosulfamuron, 2-[[[[[(4,6-dimethoxy-2-pyrimidinyl)amino]carbonyl]amino]sulfonyl]amino]-N,N-dimethylbenzamide]",pest or weed control at 7.5 g/ha,[1]; 7.5 gai/ha,0%
same,pest or weed control at 15 g/ha,[1]; 15 gai/ha,0%
same,Visual Weed Control (%) - 21 DAA ECHOR Obs,"[2]; Table 46, 15 gai/ha alone",10%
same,Visual Weed Control (%) - 20 DAA SCPMA Obs,"[3]; Table 45, 60 gai/ha alone",85%
same,Visual Weed Control (%) - 20 DAA SCPMA Obs,"[3]; Table 46, 60 gai/ha alone",85%
same,pest or weed control at 7.5 g/ha,"[4]; 480 h, 20 DAA, 7.5 gai/ha, read-out: Visual Weed Control (%) Obs",0%
same,pest or weed control at 15 g/ha,"[4]; 480 h, 20 DAA, 15 gai/ha, read-out: Visual Weed Control (%) Obs",30%
same,Visual Weed Control (%) Obs,[5]; 7.5 gai/ha,0%
same,Visual Weed Control (%) Obs,[5]; 15 gai/ha,30%
same,Visual Weed Control (%) Obs,[6]; 7.5 gai/ha,50%
same,Visual Weed Control (%) Obs,[6]; 15 gai/ha,75%
same,Visual Weed Control (%) Obs,[6]; 30 gai/ha,65%
"COc1cc(OC)nc(NC(=O)NS(=O)(=O)c2ncccc2C(=O)N(C)C)n1 [Nicosulfuron, 2-[[[[(4,6-dimethoxy-2-pyrimidinyl)amino]carbonyl]amino]sulfonyl]-N,N-dimethyl-3-pyridinecarboxamide, reference compound]",Visual Weed Control (%) - 20 DAA CYPRO Obs,"[7]; Table 43, 17.5 gai/ha alone",30%
same,Visual Weed Control (%) - 20 DAA CYPRO Obs,"[7]; Table 43, 35 gai/ha alone",70%
same,Visual Weed Control (%) - 20 DAA LEFCH Obs,[8],60%
same,pest or weed control at 35 g/ha,[1]; 35 gai/ha,75%
same,Visual Weed Control (%) - 20 DAA ECHOR Obs,"[2]; Table 43, 17.5 gai/ha alone",0%
same,Visual Weed Control (%) - 20 DAA ECHOR Obs,"[2]; Table 44, 17.5 gai/ha alone",0%
same,Visual Weed Control (%) - 20 DAA ECHOR Obs,"[2]; Table 44, 35 gai/ha alone",50%
same,Visual Weed Control (%) Obs,[5]; 8.75 gai/ha,10%
same,Visual Weed Control (%) Obs,[5]; 17.5 gai/ha,60%
same,Visual Weed Control (%) Obs,[5]; 35 gai/ha,70%
same,Visual Weed Control (%) Obs,[9]; 8.75 gai/ha,30%
same,Visual Weed Control (%) Obs,[9]; 17.5 gai/ha,55%
same,Visual Weed Control (%) Obs,[6]; 8.75 gai/ha,80%
CCCCOC(=O)c1nc(-c2ccc(Cl)c(OC)c2F)c(F)c(N)c1Cl [Compound A n-Butyl Ester],Visual Weed Control (%) Obs,[10]; 4.38 gae/ha,0%
same,Visual Weed Control (%) Obs,[10]; 8.75 gae/ha,0%
same,Visual Weed Control (%) - 20 DAA ECHOR Obs,"[2]; Table 30, 35 gae/ha alone",28%
same,Visual Weed Control (%) - 20 DAA ECHOR Obs,"[2]; Table 30, 70 gae/ha alone",45%
same,Visual Weed Control (%) - 20 DAA SCPMA Obs,"[3]; Table 40, 35 gae/ha alone",0%
same,Visual Weed Control (%) - 20 DAA SCPMA Obs,"[3]; Table 40, 70 gae/ha alone",0%
same,pest or weed control at 4.38 g/ha,"[4]; 504 h, read-out: Visual Weed Control (%) Obs, 21 DAA, 4.38 gae/ha",0%
same,pest or weed control at 8.75 g/ha,"[4]; 504 h, read-out: Visual Weed Control (%) Obs, 21 DAA, 8.75 gae/ha",40%
